Here are results for eleven compounds from patent publication US20250221987A1, “PIPERAZINO RING-CONTAINING DERIVATIVE, PHARMACEUTICALLY ACCEPTABLE SALT THEREOF, PREPARATION METHOD THEREFOR, AND APPLICATION THEREOF” (ACERAND THERAPEUTICS (HONG KONG) LIMITED, priority 2022, published 2025).

Structures are written as SMILES.

For the first assay, the target named is PARP1 (Homo sapiens (Human), UniProt P09874). The assay is described as follows: PARP1 enzymatic activity assay. Format: biochemical. Conditions: ratio IC50 (PARP2)/IC50 (PARP1). As to the method: 2) After the coating was completed, the coating buffer was discarded.
Sequence of PARP1 (P09874 whole entry): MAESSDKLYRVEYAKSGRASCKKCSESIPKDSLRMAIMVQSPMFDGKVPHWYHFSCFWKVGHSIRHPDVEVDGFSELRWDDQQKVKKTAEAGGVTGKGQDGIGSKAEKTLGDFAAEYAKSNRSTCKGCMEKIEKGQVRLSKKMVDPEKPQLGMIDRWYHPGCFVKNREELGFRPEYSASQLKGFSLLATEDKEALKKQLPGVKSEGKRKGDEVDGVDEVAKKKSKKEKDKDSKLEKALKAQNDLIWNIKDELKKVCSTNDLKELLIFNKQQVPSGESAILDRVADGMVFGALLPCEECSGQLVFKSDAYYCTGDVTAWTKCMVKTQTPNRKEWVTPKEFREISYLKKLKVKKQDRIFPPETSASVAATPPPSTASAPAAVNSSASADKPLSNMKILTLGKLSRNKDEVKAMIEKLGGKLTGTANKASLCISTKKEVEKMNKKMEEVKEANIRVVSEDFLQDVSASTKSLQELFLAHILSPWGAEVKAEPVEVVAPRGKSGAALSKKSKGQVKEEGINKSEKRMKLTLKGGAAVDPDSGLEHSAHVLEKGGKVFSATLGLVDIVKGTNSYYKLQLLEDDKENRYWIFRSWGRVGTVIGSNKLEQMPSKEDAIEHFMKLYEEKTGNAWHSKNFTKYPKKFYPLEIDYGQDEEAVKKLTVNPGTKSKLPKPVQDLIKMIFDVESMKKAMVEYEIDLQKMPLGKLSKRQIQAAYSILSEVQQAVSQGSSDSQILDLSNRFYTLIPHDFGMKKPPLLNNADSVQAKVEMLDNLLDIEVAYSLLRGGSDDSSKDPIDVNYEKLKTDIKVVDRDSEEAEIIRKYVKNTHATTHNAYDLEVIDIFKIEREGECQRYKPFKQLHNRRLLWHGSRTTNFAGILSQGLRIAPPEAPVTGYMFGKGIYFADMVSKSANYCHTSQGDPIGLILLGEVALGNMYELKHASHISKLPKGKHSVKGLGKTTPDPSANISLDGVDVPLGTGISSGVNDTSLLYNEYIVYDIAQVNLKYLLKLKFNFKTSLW
After washing, the blocking buffer was discarded.
4) 1000× compound was prepared. 1 μL of compound was transferred to a 96-well plate containing 199 μL of reaction buffer (50 mM Tris-HCl (pH 7.5), 0.005% Tween-20, 0.01% BSA) and mixed well.
5) 25/10×PARP1-DNA solution was prepared with reaction buffer.
6) 25/10×NAD+ solution was prepared with reaction buffer.
8) Primary antibody was 2000-fold diluted with the blocking buffer. 20 μL of primary antibody was added to the reaction plate, which was incubated at room temperature for 1.5 hours.
9) The primary antibody was discarded.
10) Secondary antibody was 2000-fold diluted with the blocking buffer.
11) The secondary antibody was discarded.
The chemiluminescence value RLU was read with Envision.
`CCc1cc2ncc(CN3CCN(c4ccc(C(=O)NC)nc4)[C@@H]4CC[C@H]43)cc2[nH]c1=O` [Example 2-3, 5-((1R,6R)-5-((7-ethyl-6-carbonyl-5,6-dihydro-1,5-naphthyridin-3-yl)methyl)-2,5-diazabicyclo[4.2.0]octan-2-yl)-N-methylpyridine-2-carboxamide]: the “PARP1/PARP2 inhibition Selectivity multiple N (N = IC50 (PARP2)/IC50 (PARP1))” value worked out at 48. Still for that read-out and setting: the same measure for `CNC(=O)c1ccc(N2CCN(Cc3cnc4cc(OC)c(=O)[nH]c4c3)[C@H]3CC[C@H]32)cn1` [Example 33-1]: more than 45.

The next assay concerns MDA-MB-436 cells. In words: Proliferation activity assay of MDA-MB-436 cells (CellTiter-Glo). Conditions: Homo sapiens, MDA-MB-436, 144 h; 4000 cells seeded, 6 days incubation; read-out: MDA-MB-436 proliferation inhibition IC50. The format is cell-based. As to the method:
Complete culture medium was prepared and mixed thoroughly. The cells were resuscitated and cultured for about two passages to select a cell line in good growth condition. The cell culture flask was removed from the incubator. Cell adherence: the culture medium was aspirated, then the cells were washed once with trypsin to discard the waste liquid, and 3 mL of fresh trypsin was added to the culture flask for digestion. When the cells were loose to be detached from the wall of the flask, 8 mL of complete culture medium was added thereto to stop trypsin digestion and mixed gently. The cell suspension was transferred to a centrifuge tube with a pipette and centrifuged at 1000 rpm for 5 minutes. The supernatant was discarded. An appropriate volume of culture medium was added to the centrifuge tube and pipetted gently to resuspend the cells evenly. The cells were counted using a Vi-Cell XR cell counter. The cell suspension was adjusted to an appropriate concentration. The cell suspension was added to a 96-well plate at 100 µL/well. The details such as cell name, seeding density, and date were labelled, and the culture plate was placed in a CO2 incubator overnight.
The compound to be tested was prepared into a 10 mM stock solution, which was aliquoted and stored in a −20° C. freezer. The compound solution was added to a 96-well plate using HPD300. The plate was incubated in a CO2 incubator for a total of 6 days.
CellTiter-Glo buffer was melted at room temperature. The lyophilized CellTiter-Glo substrate was equilibrated to room temperature. CellTiter-Glo buffer was added to the CellTiter Glo substrate and mixed thoroughly. A cell plate was taken out and equilibrated to room temperature. 100 μL of mixed CellTiter Glo reagent was added to each well, and the mixture was shaken in the dark for 10 minutes, followed by incubation for 20 minutes. The culture plate was placed into an Enspire reading plate, and the luminescence reading results were recorded. […] A pharmacodynamic inhibition rate curve was plotted by using XLFit, and the IC50 value was calculated. The 4-parameter model [fit=(A+((B−A)/(1+((C/x)^D)))] was used.
As for `CNC(=O)c1ccc(N2CCN(Cc3cnc4c5c(c(=O)[nH]c4c3)CCC5)[C@@H]3C[C@@H]32)cn1` (relative stereo) [Example 7, cis-N-methyl-5-(5-((6-oxo-6,7,8,9-tetrahydro-5H-cyclopenta[c][1,5]naphthyridin-3-yl)methyl)-2,5-diazabicyclo[4.1.0]heptan-2-yl)picolinamide], the IC50 came to 13 nM. For the compound `CCc1cc2ncc(CN3CCN(c4ccc(C(=O)NC5CC5)nc4)[C@H]4CC[C@H]43)cc2[nH]c1=O` (relative stereo) [Example 46, cis-N-cyclopropyl-5-(5-((7-ethyl-6-oxo-5,6-dihydro-1,5-naphthyridin-3-yl)methyl)-2,5-diazabicyclo[4.2.0]octan-2-yl)pyridine-2-carboxamide], the IC50 was 5 nM. Same read-out and setting: the same measure for `CNC(=O)c1ccc(N2CCN(Cc3cnc4cc(C5CC5)c(=O)[nH]c4c3)[C@@H]3CC[C@@H]32)cn1` [Example 16-2]: 6 nM; for `CNC(=O)c1ccc(N2CCN(Cc3cnc4cc(C(F)(F)F)c(=O)[nH]c4c3)[C@@H]3CC[C@@H]32)cn1` [Example 30-1, N-methyl-5-((1S,6R)-5-((6-oxo-7-(trifluoromethyl)-5,6-dihydro-1,5-naphthyridin-3-yl)methyl)-2,5-diazabicyclo[4.2.0]octan-2-yl)picolinamide]: 2 nM; for `CCc1cc2ncc(CN3CCN(c4ccc(C(=O)NC5CC5)nc4)[C@H]4CC[C@H]43)cc2[nH]c1=O` [Example 46-1, N-cyclopropyl-5-((1S,6R)-5-((7-ethyl-6-oxo-5,6-dihydro-1,5-naphthyridin-3-yl)methyl)-2,5-diazabicyclo[4.2.0]octan-2-yl)picolinamide]: 8 nM. Same read-out and setting: the value for `CCc1cc2ncc(CN3CCN(c4ccc(C(=O)NC5CC5)nc4)[C@@H]4CC[C@@H]43)cc2[nH]c1=O` [Example 46-2, N-cyclopropyl-5-((1R,6S)-5-((7-ethyl-6-oxo-5,6-dihydro-1,5-naphthyridin-3-yl)methyl)-2,5-diazabicyclo[4.2.0]octan-2-yl)picolinamide] was 2 nM.

Consider `CCc1cc2ncc(CN3CCN(c4ccc(C(=O)NC5CC5)nc4F)[C@H]4CC[C@H]43)cc2[nH]c1=O` [Example 47-2, N-cyclopropyl-5-((1S,6R)-5-((7-ethyl-6-oxo-5,6-dihydro-1,5-naphthyridin-3-yl)methyl)-2,5-diazabicyclo[4.2.0]octan-2-yl)-6-fluoropicolinamide], for which the IC50 stood at 3 nM. Same read-out and setting: the value for `CCc1cc2ncc(CN3CCN(c4ccc(C(=O)NC5CCC5)nc4)[C@@H]4CC[C@@H]43)cc2[nH]c1=O` [Example 48-1, N-cyclobutyl-5-((1R,6S)-5-((7-ethyl-6-oxo-5,6-dihydro-1,5-naphthyridin-3-yl)methyl)-2,5-diazabicyclo[4.2.0]octan-2-yl)picolinamide] was 12 nM.

As to `CCc1cc2ncc(CN3CCN(c4ccc(C(=O)NC5CCC5)nc4)[C@H]4CC[C@H]43)cc2[nH]c1=O` [Example 48-2, N-cyclobutyl-5-((1S,6R)-5-((7-ethyl-6-oxo-5,6-dihydro-1,5-naphthyridin-3-yl)methyl)-2,5-diazabicyclo[4.2.0]octan-2-yl)picolinamide], the IC50 was 2 nM.
